Experimental data taken from patent US20230015823A1, “METHODS OF ADMINISTERING VOXELOTOR” (Global Blood Therapeutics, Inc., priority 2019, published 2023).
Read-outs that look alike come from different tables or passages of the source.

Test: Phase 1 study of a single oral dose of voxelotor in subjects with hepatic impairment: whole blood and plasma PK
Format: in vivo, human
Conditions: human; for half-life: read-out: t1/2, mean (converted); for Vd/F: read-out: Vz/F, GM (converted); for Tmax: read-out: tmax, median (converted)
Description: A Phase 1, open-label study was performed to characterize pharmacokinetics (PK) and safety of a single oral dose of voxelotor in subjects with hepatic impairment. The study was to assess the effects of mild, moderate, or severe hepatic impairment on the PK of a single oral dose of voxelotor, to evaluate the safety and tolerability of a single oral dose of voxelotor in subjects with mild, moderate, or severe hepatic impairment, as well as to establish potential dose adjustment guidance based upon the degree of hepatic insufficiency. […] This study was designed to assess the effects of mild, moderate, or severe hepatic impairment on the PK of a single oral dose of voxelotor. Routine safety assessments (AE monitoring, vital signs, physical examinations, clinical laboratory tests, and ECGs) were performed. Eligible subjects received a single oral dose of voxelotor 1500 mg (5×300-mg capsules) on Day 1 (for normal hepatic function, mild and moderate hepatic impairment). […] No food was allowed for at least 4 hours postdose. No water or any type of liquid was allowed for 1 hour before dosing through 1-hour postdose with the exception of water consumed for dosing. Adverse events and concomitant medication use were monitored throughout the study. Safety assessments, including physical examinations, vital signs assessments, 12-lead ECGs, and clinical laboratory tests, were performed. Whole blood and plasma concentrations of voxelotor were determined using validated assays. […] Louis, Mo.) and actual sampling times. The following PK parameters were determined. To assess the effect of hepatic impairment on the PK of voxelotor, a linear mixed-effect model was fitted to the log-transformed values of whole blood and plasma Cmax, AUCt, and AUCinf. The model included hepatic impairment group as a fixed effect and age and weight as covariates. Point estimates and 90% CIs for hepatic function group differences (mild, moderate, and severe hepatically-impaired subjects [test] versus the normal hepatic function subjects [control]) on the log scale were exponentiated to obtain estimates for GM ratios on the original scale. Voxelotor whole blood and plasma concentrations were measured using a validated liquid chromatography-mass spectrometry method. The lower limit of assay quantitation for voxelotor was 10.0 ng/mL for whole blood and 5.00 ng/mL in plasma.

[1] = plasma, po, 600 mg, plasma, severe hepatic impairment, 600 mg single oral dose
[2] = plasma, po, 1500 mg, plasma, mild hepatic impairment, 1500 mg single oral dose
[3] = plasma, po, 1500 mg, plasma, moderate hepatic impairment, 1500 mg single oral dose
[4] = plasma, po, 1500 mg, plasma, normal hepatic function, 1500 mg single oral dose

## CC(C)n1nccc1-c1ncccc1COc1cccc(O)c1C=O [voxelotor, 2-hydroxy-6-((2-(1-isopropyl-1H-pyrazol-5-yl)pyridin-3-yl)methoxy)benzaldehyde]
In vivo, plasma, mild hepatic impairment, 1500 mg single oral dose
  half-life: 71.4 h
plasma, oral, 600 mg, plasma, severe hepatic impairment (Test), 600 mg, adjusted for dose to 1500 mg, read-out: AUCinf, Geometric LS Mean
  AUC(0-inf): 394 µg·h/mL
plasma, oral, 600 mg, plasma, severe hepatic impairment (Test), 600 mg, adjusted for dose to 1500 mg, read-out: AUCt, Geometric LS Mean
  AUC(0-t): 388 µg·h/mL
plasma, oral, 600 mg, plasma, severe hepatic impairment (Test), 600 mg, adjusted for dose to 1500 mg, read-out: Cmax, Geometric LS Mean
  Cmax: 2900 ng/mL
plasma, oral, 1500 mg, plasma, mild hepatic impairment (Test), 1500 mg, read-out: AUCinf, Geometric LS Mean
  AUC(0-inf): 223 µg·h/mL
plasma, oral, 1500 mg, plasma, mild hepatic impairment (Test), 1500 mg, read-out: AUCt, Geometric LS Mean
  AUC(0-t): 221 µg·h/mL
plasma, oral, 1500 mg, plasma, mild hepatic impairment (Test), 1500 mg, read-out: Cmax, Geometric LS Mean
  Cmax: 2360 ng/mL
plasma, oral, 1500 mg, plasma, moderate hepatic impairment (Test), 1500 mg, read-out: AUCinf, Geometric LS Mean
  AUC(0-inf): 240 µg·h/mL
plasma, oral, 1500 mg, plasma, moderate hepatic impairment (Test), 1500 mg, read-out: AUCt, Geometric LS Mean
  AUC(0-t): 245 µg·h/mL
plasma, oral, 1500 mg, plasma, moderate hepatic impairment (Test), 1500 mg, read-out: Cmax, Geometric LS Mean
  Cmax: 3030 ng/mL
plasma, oral, 1500 mg, plasma, normal hepatic function (Reference), 1500 mg, read-out: AUCinf, Geometric LS Mean
  AUC(0-inf): 204 µg·h/mL
plasma, oral, 1500 mg, plasma, normal hepatic function (Reference), 1500 mg, read-out: AUCt, Geometric LS Mean
  AUC(0-t): 203 µg·h/mL
plasma, oral, 1500 mg, plasma, normal hepatic function (Reference), 1500 mg, read-out: Cmax, Geometric LS Mean
  Cmax: 2010 ng/mL
plasma, po, 600 mg, plasma, severe hepatic impairment, 600 mg single oral dose, adjusted for dose to 1500 mg, read-out: AUC0-96, GM (converted)
  AUC(0-t): 177 µg·h/mL
plasma, po, 600 mg, plasma, severe hepatic impairment, 600 mg single oral dose, adjusted for dose to 1500 mg, read-out: AUCinf, GM (converted)
  AUC(0-inf): 393 µg·h/mL
plasma, po, 600 mg, plasma, severe hepatic impairment, 600 mg single oral dose, adjusted for dose to 1500 mg, read-out: AUCt, GM (converted)
  AUC(0-t): 386 µg·h/mL
plasma, po, 600 mg, plasma, severe hepatic impairment, 600 mg single oral dose, adjusted for dose to 1500 mg, read-out: Cmax, GM (converted)
  Cmax: 2960 ng/mL
[1]
  Vd/F: 592 L
  half-life: 109 h
  Tmax: 4 h
plasma, po, 1500 mg, plasma, mild hepatic impairment, 1500 mg single oral dose, read-out: AUC0-96, GM (converted)
  AUC(0-t): 143 µg·h/mL
plasma, po, 1500 mg, plasma, mild hepatic impairment, 1500 mg single oral dose, read-out: AUCinf, GM (converted)
  AUC(0-inf): 224 µg·h/mL
plasma, po, 1500 mg, plasma, mild hepatic impairment, 1500 mg single oral dose, read-out: AUCt, GM (converted)
  AUC(0-t): 223 µg·h/mL
plasma, po, 1500 mg, plasma, mild hepatic impairment, 1500 mg single oral dose, read-out: Cmax, GM (converted)
  Cmax: 2390 ng/mL
[2]
  Vd/F: 674 L
  Tmax: 4 h
plasma, po, 1500 mg, plasma, moderate hepatic impairment, 1500 mg single oral dose, read-out: AUC0-96, GM (converted)
  AUC(0-t): 146 µg·h/mL
plasma, po, 1500 mg, plasma, moderate hepatic impairment, 1500 mg single oral dose, read-out: AUCinf, GM (converted)
  AUC(0-inf): 244 µg·h/mL
plasma, po, 1500 mg, plasma, moderate hepatic impairment, 1500 mg single oral dose, read-out: AUCt, GM (converted)
  AUC(0-t): 252 µg·h/mL
plasma, po, 1500 mg, plasma, moderate hepatic impairment, 1500 mg single oral dose, read-out: Cmax, GM (converted)
  Cmax: 2910 ng/mL
[3]
  Vd/F: 789 L
  half-life: 90 h
  Tmax: 5 h
plasma, po, 1500 mg, plasma, normal hepatic function, 1500 mg single oral dose, read-out: AUC0-96, GM (converted)
  AUC(0-t): 120 µg·h/mL
plasma, po, 1500 mg, plasma, normal hepatic function, 1500 mg single oral dose, read-out: AUCinf, GM (converted)
  AUC(0-inf): 200 µg·h/mL
plasma, po, 1500 mg, plasma, normal hepatic function, 1500 mg single oral dose, read-out: AUCt, GM (converted)
  AUC(0-t): 199 µg·h/mL
plasma, po, 1500 mg, plasma, normal hepatic function, 1500 mg single oral dose, read-out: Cmax, GM (converted)
  Cmax: 2010 ng/mL
[4]
  Vd/F: 865 L
  half-life: 80.8 h
  Tmax: 4 h
Whole blood, oral, 600 mg, whole blood, severe hepatic impairment (Test), 600 mg, adjusted for dose to 1500 mg, read-out: AUCinf, Geometric LS Mean
  AUC(0-inf): 13600 µg·h/mL
Whole blood, oral, 600 mg, whole blood, severe hepatic impairment (Test), 600 mg, adjusted for dose to 1500 mg, read-out: AUCt, Geometric LS Mean
  AUC(0-t): 13300 µg·h/mL
Whole blood, oral, 600 mg, whole blood, severe hepatic impairment (Test), 600 mg, adjusted for dose to 1500 mg, read-out: Cmax, Geometric LS Mean
  Cmax: 85400 ng/mL
Whole blood, oral, 1500 mg, whole blood, mild hepatic impairment (Test), 1500 mg, read-out: AUCinf, Geometric LS Mean
  AUC(0-inf): 8160 µg·h/mL
Whole blood, oral, 1500 mg, whole blood, mild hepatic impairment (Test), 1500 mg, read-out: AUCt, Geometric LS Mean
  AUC(0-t): 8120 µg·h/mL
Whole blood, oral, 1500 mg, whole blood, mild hepatic impairment (Test), 1500 mg, read-out: Cmax, Geometric LS Mean
  Cmax: 72900 ng/mL
Whole blood, oral, 1500 mg, whole blood, moderate hepatic impairment (Test), 1500 mg, read-out: AUCinf, Geometric LS Mean
  AUC(0-inf): 8230 µg·h/mL
Whole blood, oral, 1500 mg, whole blood, moderate hepatic impairment (Test), 1500 mg, read-out: AUCt, Geometric LS Mean
  AUC(0-t): 8190 µg·h/mL
Whole blood, oral, 1500 mg, whole blood, moderate hepatic impairment (Test), 1500 mg, read-out: Cmax, Geometric LS Mean
  Cmax: 64900 ng/mL
Whole blood, oral, 1500 mg, whole blood, normal hepatic function (Reference), 1500 mg, read-out: AUCinf, Geometric LS Mean
  AUC(0-inf): 7150 µg·h/mL
Whole blood, oral, 1500 mg, whole blood, normal hepatic function (Reference), 1500 mg, read-out: AUCt, Geometric LS Mean
  AUC(0-t): 7130 µg·h/mL
Whole blood, oral, 1500 mg, whole blood, normal hepatic function (Reference), 1500 mg, read-out: Cmax, Geometric LS Mean
  Cmax: 61400 ng/mL
Whole blood, po, 600 mg, whole blood, severe hepatic impairment, 600 mg single oral dose, adjusted for dose to 1500 mg, read-out: AUC0-96, GM (converted)
  AUC(0-t): 6050 µg·h/mL
Whole blood, po, 600 mg, whole blood, severe hepatic impairment, 600 mg single oral dose, adjusted for dose to 1500 mg, read-out: AUCinf, GM (converted)
  AUC(0-inf): 13600 µg·h/mL
Whole blood, po, 600 mg, whole blood, severe hepatic impairment, 600 mg single oral dose, adjusted for dose to 1500 mg, read-out: AUCt, GM (converted)
  AUC(0-t): 13300 µg·h/mL
Whole blood, po, 600 mg, whole blood, severe hepatic impairment, 600 mg single oral dose, adjusted for dose to 1500 mg, read-out: Cmax, GM (converted)
  Cmax: 86600 ng/mL
Whole blood, po, 600 mg, whole blood, severe hepatic impairment, 600 mg single oral dose
  Vd/F: 17.6 L
